Results as given in EP3884956A1, “METHODS FOR PRODUCING HEME PEROXIDASES” (Technische Universität Wien, priority 2020, dated 2021).
Residue numbers refer to the chain shown, from its start.

Tests used:
Experiment in all cases: Enzyme kinetic parameters, 96-well plate assay
Type in all cases: biochemical
[1] = target: T1, wild-type HRP (rHRP, horseradish peroxidase variant C1A, SEQ ID NO: 2) (Armoracia rusticana, UniProt P00433); conditions: Table 20; TMB 20 - 550 µM, 1 mM hydrogen peroxide, 50 mM phosphate-citrate buffer pH 5, 30 °C
T1 sequence (P00433 31-338): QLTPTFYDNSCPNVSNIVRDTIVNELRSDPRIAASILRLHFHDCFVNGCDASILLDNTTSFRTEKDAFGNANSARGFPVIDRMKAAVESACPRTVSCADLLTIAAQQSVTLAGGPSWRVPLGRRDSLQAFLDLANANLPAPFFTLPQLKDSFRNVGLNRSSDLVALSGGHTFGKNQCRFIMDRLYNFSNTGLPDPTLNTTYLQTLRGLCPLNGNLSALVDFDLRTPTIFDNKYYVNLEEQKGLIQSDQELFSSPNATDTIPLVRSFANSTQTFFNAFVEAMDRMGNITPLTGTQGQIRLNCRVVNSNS
Experimental: (§1) Plant HRP Type VI-A (Cat. No.: P6782) was obtained from Sigma-Aldrich (St. Louis, MO, USA). All HRP variants produced in E. coli consisted of the sequence as set forth in SEQ ID NO: 2 with the indicated mutations unless specified otherwise.
(§2) For measurements with 3,3',5,5'-tetramethylbenzidine (TMB) as substrate, the reaction mixture in each well of the 96-well plate contained a saturating hydrogen peroxide concentration of 1 mM and varying TMB concentrations (20 - 550 µM) in 50 mM phosphate-citrate buffer pH 5 in a final volume of 200 µL. Protein sample (5 µL) was mixed with 175 µl TMB-buffer mixture and the reaction was started with 20 µl hydrogen peroxide solution (10 mM). The increase in absorption was followed at 652 nm for 60s at 30 °C in a Tecan Infinite M200 PRO instrument. The kinetic parameters were calculated using Sigma Plot software (Systat Software INC., San Jose, CA, USA) and an extinction coefficient of ε652 = 39 mM^-1 cm^-1 (see Josephy, et al. "The horseradish peroxidase-catalyzed oxidation of 3, 5, 3', 5'-tetramethylbenzidine. Free radical and charge-transfer complex intermediates." Journal of Biological Chemistry 257.7 (1982): 3669-3675).
(§3) The increase in absorption was followed at 420 nm for 120 s at 30 °C in a Tecan Infinite M200 PRO instrument. The kinetic parameters were calculated using Sigma Plot software (Systat Software INC., San Jose, CA, USA) and an extinction coefficient of ε420 = 36 mM^-1 cm^-1 (see Childs and Bardsley. "The steady-state kinetics of peroxidase with 2, 2'-azino-di-(3-ethyl-benzthiazoline-6-sulphonic acid) as chromogen." Biochemical Journal 145.1 (1975): 93-103).

[2] = target: T2, horseradish peroxidase variant HRP N13D/N57S/P146Q/N175S/N255D/N268D/N275K (mHRP, SEQ ID NO: 4) (Armoracia rusticana, UniProt P00433, N205S/N285D/N298D/N305K/N43D/N87S/P176Q); conditions: 50 mM phosphate-citrate buffer pH 5, 30 °C; for Vmax (substrate ABTS): ABTS 0.1 - 7 mM, 1 mM hydrogen peroxide
T2 sequence (P00433 31-338 N43D/N87S/P176Q/N205S/N285D/N298D/N305K): T1 sequence (P00433 31-338) with N13D, N57S, P146Q, N175S, N255D, N268D, N275K
Experimental: as §1, §2, §3, §3

[3] = target: T3, horseradish peroxidase variant HRP N13D/N57S/N175S/N255D/N268D (Armoracia rusticana, UniProt P00433, N205S/N285D/N298D/N43D/N87S); conditions: 50 mM phosphate-citrate buffer pH 5, 30 °C
T3 sequence (P00433 31-338 N43D/N87S/N205S/N285D/N298D): T1 sequence (P00433 31-338) with N13D, N57S, N175S, N255D, N268D
Experimental: as §1, §2, §3, §3

[4] = target: T4, plant-derived HRP (pHRP; Plant HRP Type VI-A, horseradish peroxidase) (Armoracia rusticana, UniProt P00433); conditions: Table 19; ABTS 0.1 - 7 mM, 1 mM hydrogen peroxide, 50 mM phosphate-citrate buffer pH 5, 30 °C
T4 sequence (P00433 31-338): T1 sequence (P00433 31-338)
Experimental: as §1, §2, §3

[5] = Table 17, hydrogen peroxide 0.001 - 1 mM, 10 mM ABTS
[6] = Table 17, hydrogen peroxide 0.001 - 1 mM, 10 mM ABTS, read-out: Km (substrate H2O2)

Cc1cc(-c2cc(C)c(N)c(C)c2)cc(C)c1N [TMB, 3,3',5,5'-tetramethylbenzidine]
Vmax (substrate TMB) [1]: 7146 ± 355 U/mg
kcat (substrate TMB) [1]: 4169 ± 207 s⁻¹

CCn1c(=NN=c2sc3cc(S(=O)(=O)O)ccc3n2CC)sc2cc(S(=O)(=O)O)ccc21 [ABTS, 2,2'-azino-bis(3-ethylbenzothiazoline-6-sulfonic acid)]
Vmax (substrate ABTS) ([2]; Table 18): 1214 ± 98 U/mg
Vmax (substrate ABTS) ([2]; Table 19): 1203 ± 96 U/mg
Vmax (substrate ABTS) ([3]; Table 18, ABTS 0.1 - 7 mM, 1 mM hydrogen peroxide): 1224 ± 115 U/mg
Vmax (substrate ABTS) [4]: 1285 ± 70 U/mg

OO [H2O2, hydrogen peroxide]
Vmax (substrate H2O2) [2, 5]: 2337 ± 38 U/mg
kcat (substrate H2O2) [2, 5]: 1344 ± 22 s⁻¹
Km [2, 6]: 171 ± 9 µM
Vmax (substrate H2O2) [3, 5]: 2003 ± 14 U/mg
kcat (substrate H2O2) [3, 5]: 1152 ± 8.3 s⁻¹
Km [3, 6]: 174 ± 4 µM
